Results taken from ChEMBL document CHEMBL1153751, “Biologically active tetranorditerpenoids from the fungus Sclerotinia homoeocarpa causal agent of dollar spot in turfgrass” (J Nat Prod, 2009).
≈ marks a conversion by molar mass, not a printed value. Calls of active or inactive are those of the source. No cut-off for these calls is given here.

tested on: SK-MEL; assay: Cytotoxicity against human SK-MEL cells after 48 hrs by neutral red dye staining; format: functional, cell-based; conditions: not given

| Structure (SMILES) | IC50 |
| --- | --- |
| C[C@@]12C[C@@H](O)C[C@]3(C)C4=CC(=O)OC[C@]45O[C@@H]5[C@@H](OC1=O)C23 (some centres not stated) | 1.1 µg/mL (≈ 3.59 µM) |
| C[C@@]12CCC[C@]3(C)C4=CC(=O)OCC4=C[C@@H](OC1=O)C23 (some centres not stated) | 1.1 µg/mL (≈ 4.01 µM) |
| C[C@@]12CC[C@@H](O)[C@]3(C)C4=CC(=O)OCC4=C[C@@H](OC1=O)C23 (some centres not stated) | 3.3 µg/mL (≈ 11.4 µM) |

tested on: Lactuca sativa; assay: Phytotoxicity against Lactuca sativa at 0.001 mg/ml; format: functional, organism-based; conditions: not given

| Structure (SMILES) | Activity |
| --- | --- |
| C[C@@]12C[C@@H](O)C[C@]3(C)C4=CC(=O)OC[C@]45O[C@@H]5[C@@H](OC1=O)C23 (some centres not stated) | inactive |
| C[C@@]12CCC[C@]3(C)C4=CC(=O)OCC4=C[C@@H](OC1=O)C23 (some centres not stated) | inactive |
| C[C@@]12CC[C@@H](O)[C@]3(C)C4=CC(=O)OCC4=C[C@@H](OC1=O)C23 (some centres not stated) | inactive |

tested on: Agrostis stolonifera; assay: Phytotoxicity against Agrostis stolonifera at 0.1 mg/ml; format: functional, organism-based; conditions: not given

| Structure (SMILES) | Activity |
| --- | --- |
| C[C@@]12C[C@@H](O)C[C@]3(C)C4=CC(=O)OC[C@]45O[C@@H]5[C@@H](OC1=O)C23 (some centres not stated) | Active |
| C[C@@]12CCC[C@]3(C)C4=CC(=O)OCC4=C[C@@H](OC1=O)C23 (some centres not stated) | Active |
| C[C@@]12CC[C@@H](O)[C@]3(C)C4=CC(=O)OCC4=C[C@@H](OC1=O)C23 (some centres not stated) | Active |

tested on: Agrostis stolonifera; assay: Phytotoxicity against Agrostis stolonifera at 0.001 mg/ml; format: functional, organism-based; conditions: not given

| Structure (SMILES) | Activity |
| --- | --- |
| C[C@@]12C[C@@H](O)C[C@]3(C)C4=CC(=O)OC[C@]45O[C@@H]5[C@@H](OC1=O)C23 (some centres not stated) | inactive |
| C[C@@]12CCC[C@]3(C)C4=CC(=O)OCC4=C[C@@H](OC1=O)C23 (some centres not stated) | inactive |
| C[C@@]12CC[C@@H](O)[C@]3(C)C4=CC(=O)OCC4=C[C@@H](OC1=O)C23 (some centres not stated) | inactive |

tested on: SK-OV-3; assay: Cytotoxicity against human SKOV3 cells after 48 hrs by neutral red dye staining; format: functional, cell-based; conditions: SK-OV-3, 48 h

| Structure (SMILES) | IC50 |
| --- | --- |
| C[C@@]12C[C@@H](O)C[C@]3(C)C4=CC(=O)OC[C@]45O[C@@H]5[C@@H](OC1=O)C23 (some centres not stated) | 10 µg/mL (≈ 32.6 µM) |
| C[C@@]12CCC[C@]3(C)C4=CC(=O)OCC4=C[C@@H](OC1=O)C23 (some centres not stated) | > 10 µg/mL |
| C[C@@]12CC[C@@H](O)[C@]3(C)C4=CC(=O)OCC4=C[C@@H](OC1=O)C23 (some centres not stated) | > 10 µg/mL |

tested on: Vero; assay: Cytotoxicity against african green monkey Vero cells after 48 hrs by neutral red dye staining; format: cell-based; conditions: Chlorocebus sabaeus

| Structure (SMILES) | IC50 |
| --- | --- |
| C[C@@]12C[C@@H](O)C[C@]3(C)C4=CC(=O)OC[C@]45O[C@@H]5[C@@H](OC1=O)C23 (some centres not stated) | 3.3 µg/mL (≈ 10.8 µM) |
| C[C@@]12CCC[C@]3(C)C4=CC(=O)OCC4=C[C@@H](OC1=O)C23 (some centres not stated) | 3.7 µg/mL (≈ 13.5 µM) |
| C[C@@]12CC[C@@H](O)[C@]3(C)C4=CC(=O)OCC4=C[C@@H](OC1=O)C23 (some centres not stated) | 4.76 µg/mL (≈ 16.4 µM) |

tested on: Lactuca sativa; assay: Phytotoxicity against Lactuca sativa at 1 mg/ml; format: functional, organism-based; conditions: not given

| Structure (SMILES) | Activity |
| --- | --- |
| C[C@@]12C[C@@H](O)C[C@]3(C)C4=CC(=O)OC[C@]45O[C@@H]5[C@@H](OC1=O)C23 (some centres not stated) | Active |
| C[C@@]12CCC[C@]3(C)C4=CC(=O)OCC4=C[C@@H](OC1=O)C23 (some centres not stated) | Active |
| C[C@@]12CC[C@@H](O)[C@]3(C)C4=CC(=O)OCC4=C[C@@H](OC1=O)C23 (some centres not stated) | Active |

tested on: not listed separately; assay: Cytotoxicity against pig LLC-PK11 cells after 48 hrs by neutral red dye staining; format: functional, cell-based; conditions: Sus scrofa, LLC-PK11, 48 h

| Structure (SMILES) | IC50 |
| --- | --- |
| C[C@@]12C[C@@H](O)C[C@]3(C)C4=CC(=O)OC[C@]45O[C@@H]5[C@@H](OC1=O)C23 (some centres not stated) | 4.2 µg/mL (≈ 13.7 µM) |
| C[C@@]12CCC[C@]3(C)C4=CC(=O)OCC4=C[C@@H](OC1=O)C23 (some centres not stated) | 5.4 µg/mL (≈ 19.7 µM) |
| C[C@@]12CC[C@@H](O)[C@]3(C)C4=CC(=O)OCC4=C[C@@H](OC1=O)C23 (some centres not stated) | > 10 µg/mL |

tested on: Lemna aequinoctialis; assay: Phytotoxicity against Lemna paucicostata after 7 days; format: functional, organism-based; conditions: 168 h, read-out: I50

| Structure (SMILES) | IC50 |
| --- | --- |
| C[C@@]12C[C@@H](O)C[C@]3(C)C4=CC(=O)OC[C@]45O[C@@H]5[C@@H](OC1=O)C23 (some centres not stated) | 3.32 µM |
| C[C@@]12CCC[C@]3(C)C4=CC(=O)OCC4=C[C@@H](OC1=O)C23 (some centres not stated) | 0.95 µM |
| C[C@@]12CC[C@@H](O)[C@]3(C)C4=CC(=O)OCC4=C[C@@H](OC1=O)C23 (some centres not stated) | 547 µM |

tested on: Vero; assay: Cytotoxicity against african green monkey Vero cells at 4760 ng/ml after 48 hrs by neutral red dye staining; format: cell-based; conditions: Chlorocebus sabaeus

| Structure (SMILES) | inhibition (INH) |
| --- | --- |
| CCN(CC)CCCC(C)Nc1ccnc2cc(Cl)ccc12 (configuration not stated) [CHLOROQUINE] | Not Active |

tested on: BT-549; assay: Cytotoxicity against human BT549 cells after 48 hrs by neutral red dye staining; format: functional, cell-based; conditions: BT-549, 48 h

| Structure (SMILES) | IC50 |
| --- | --- |
| C[C@@]12C[C@@H](O)C[C@]3(C)C4=CC(=O)OC[C@]45O[C@@H]5[C@@H](OC1=O)C23 (some centres not stated) | 10 µg/mL (≈ 32.6 µM) |
| C[C@@]12CCC[C@]3(C)C4=CC(=O)OCC4=C[C@@H](OC1=O)C23 (some centres not stated) | > 10 µg/mL |
| C[C@@]12CC[C@@H](O)[C@]3(C)C4=CC(=O)OCC4=C[C@@H](OC1=O)C23 (some centres not stated) | > 10 µg/mL |

tested on: KB; assay: Cytotoxicity against human KB cells after 48 hrs by neutral red dye staining; format: functional, cell-based; conditions: not given

| Structure (SMILES) | IC50 |
| --- | --- |
| C[C@@]12C[C@@H](O)C[C@]3(C)C4=CC(=O)OC[C@]45O[C@@H]5[C@@H](OC1=O)C23 (some centres not stated) | 6.8 µg/mL (≈ 22.2 µM) |
| C[C@@]12CCC[C@]3(C)C4=CC(=O)OCC4=C[C@@H](OC1=O)C23 (some centres not stated) | 4.2 µg/mL (≈ 15.3 µM) |
| C[C@@]12CC[C@@H](O)[C@]3(C)C4=CC(=O)OCC4=C[C@@H](OC1=O)C23 (some centres not stated) | > 10 µg/mL |

tested on: Plasmodium falciparum; assay: microbe, parasite or virus in culture; conditions: D6, 72 h

| Structure (SMILES) | IC50 |
| --- | --- |
| C[C@@]12C[C@@H](O)C[C@]3(C)C4=CC(=O)OC[C@]45O[C@@H]5[C@@H](OC1=O)C23 (some centres not stated) | 0.74 µg/mL (≈ 2.42 µM) |
| C[C@@]12CCC[C@]3(C)C4=CC(=O)OCC4=C[C@@H](OC1=O)C23 (some centres not stated) | 0.3 µg/mL (≈ 1.09 µM) |

tested on: Agrostis stolonifera; assay: Phytotoxicity against Agrostis stolonifera at 1 mg/ml; format: functional, organism-based; conditions: not given

| Structure (SMILES) | Activity |
| --- | --- |
| C[C@@]12C[C@@H](O)C[C@]3(C)C4=CC(=O)OC[C@]45O[C@@H]5[C@@H](OC1=O)C23 (some centres not stated) | Active |
| C[C@@]12CCC[C@]3(C)C4=CC(=O)OCC4=C[C@@H](OC1=O)C23 (some centres not stated) | Active |
| C[C@@]12CC[C@@H](O)[C@]3(C)C4=CC(=O)OCC4=C[C@@H](OC1=O)C23 (some centres not stated) | Active |

tested on: Lactuca sativa; assay: Phytotoxicity against Lactuca sativa at 0.1 mg/ml; format: functional, organism-based; conditions: not given

| Structure (SMILES) | Activity |
| --- | --- |
| C[C@@]12C[C@@H](O)C[C@]3(C)C4=CC(=O)OC[C@]45O[C@@H]5[C@@H](OC1=O)C23 (some centres not stated) | Active |
| C[C@@]12CCC[C@]3(C)C4=CC(=O)OCC4=C[C@@H](OC1=O)C23 (some centres not stated) | Active |
| C[C@@]12CC[C@@H](O)[C@]3(C)C4=CC(=O)OCC4=C[C@@H](OC1=O)C23 (some centres not stated) | Active |
